Experimental data reported in the supplement of paper PMC10307832.

Key:
Experiment in all cases: relative viability (nuclei count vs DMSO), 5 days (fraction); higher = more cells survive
[1] = compound: CCOC1=CC=CC=C1N=NC2=C(NN(C2=O)C3=NC(=CS3)C4=CC=CC=C4)C [BAM7] + Cc1cc(Nc2cc(N3CCN(C)CC3)nc(Sc3ccc(NC(=O)C4CC4)cc3)n2)n[nH]1 [Tozasertib] (partner 0.1 µM)
How it was run: (§1)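 A single step with final 0.05% Triton X-100, 1% formaldehyde and 1 ug/ml Hoechst fixed the cells and stained nuclei 5 days after treatment. Lung cancer cell lines in 1536-well plates had been treated by pin tool the day after seeding with one drug alone or a fixed anchor-drug dose plus five library-drug doses (not always all listed) in √10 steps, and nuclei were counted on 4× images. Relative viability is the ratio of nuclei in treated wells to nuclei in vehicle wells, taken as the median of duplicate plates.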

[2] = compound: CCn1c(-c2nonc2N)nc2c(C#CC(C)(C)O)ncc(OC[C@H]3CCCNC3)c21 + CC(=O)c1c(C)c2cnc(Nc3ccc(N4CCNCC4)cn3)nc2n(C2CCCC2)c1=O [Palbociclib] (partner 0.5 µM)
How it was run: as §1

[3] = compound: CCn1c(-c2nonc2N)nc2c(C#CC(C)(C)O)ncc(OC[C@H]3CCCNC3)c21 + CC1(C)CCC(c2ccc(Cl)cc2)=C(CN2CCN(c3ccc(C(=O)NS(=O)(=O)c4ccc(N[C@H](CCN5CCOCC5)CSc5ccccc5)c(S(=O)(=O)C(F)(F)F)c4)cc3)CC2)C1 [Navitoclax] (partner 0.5 µM)
How it was run: as §1

[4] = compound: CCn1c(-c2nonc2N)nc2c(C#CC(C)(C)O)ncc(OC[C@H]3CCCNC3)c21 + C[C@]1(O)C[C@@H](c2nc(-c3ccc4ccc(-c5ccccc5)nc4c3)c3c(N)nccn32)C1 [Linsitinib] (partner 1 µM)
How it was run: as §1

Row | Cell Line | relative viability ([1]; first compound 0.5 µM) | relative viability ([1]; first compound 5 µM) | relative viability ([1]; first compound 15.81 µM) | relative viability ([1]; first compound 50 µM) | relative viability ([2]; first compound 0.01 µM) | relative viability ([2]; first compound 0.03162 µM) | relative viability ([2]; first compound 0.1 µM) | relative viability ([2]; first compound 0.3162 µM) | relative viability ([2]; first compound 1 µM) | relative viability ([3]; first compound 0.01 µM) | relative viability ([3]; first compound 0.03162 µM) | relative viability ([3]; first compound 0.1 µM) | relative viability ([3]; first compound 0.3162 µM) | relative viability ([3]; first compound 1 µM) | relative viability ([4]; first compound 0.01 µM) | relative viability ([4]; first compound 0.03162 µM) | relative viability ([4]; first compound 0.1 µM) | relative viability ([4]; first compound 0.3162 µM) | relative viability ([4]; first compound 1 µM)
1 | NCI-H647 | 0.309 | 0.333 | 0.294 | 0.247 | 0.349 | 0.401 | 0.416 | 0.309 | 0.337 | 1.16 | 0.96 | 1.14 | 1.08 | 1.14 | 1.25 | 1.36 | 1.21 | 1.16 | 1.01
2 | SK-LU-1 | 0.332 | 0.449 | 0.341 | 0.323 | 0.405 | 0.455 | 0.323 | 0.414 | 0.39 | 0.89 | 0.936 | 0.99 | 0.921 | 0.761 | 1.06 | 1.23 | 1.22 | 1.19 | 1.09
3 | NCI-H2009 | 0.832 | 0.763 | 0.62 | 0.608 | 0.202 | 0.223 | 0.229 | 0.186 | 0.241 | 1.17 | 1.17 | 1.2 | 1.12 | 1.11 | 1.15 | 1.19 | 1.27 | 1.1 | 1.19
4 | LOU-NH91 | 0.667 | 0.702 | 0.674 | 0.689 | 0.511 | 0.541 | 0.527 | 0.535 | 0.479 | 0.691 | 0.709 | 0.697 | 0.632 | 0.572 | 0.953 | 0.987 | 0.963 | 0.88 | 0.886
5 | NCI-H2405 | 0.721 | 0.809 | 0.73 | 0.721 | 0.52 | 0.539 | 0.472 | 0.481 | 0.511 | 0.892 | 0.873 | – | 0.883 | 1 | 0.924 | 1.06 | – | 0.794 | 1.02
6 | LCLC-97TM1 | 0.207 | 0.442 | 0.261 | 0.172 | 0.19 | 0.245 | 0.234 | 0.205 | 0.2 | – | 0.337 | 0.475 | 0.641 | 0.328 | – | 0.159 | 0.169 | 0.229 | 0.21
7 | NCI-H727 | 0.496 | 0.599 | 0.555 | 0.52 | 0.667 | 0.695 | 0.52 | 0.647 | 0.734 | 0.387 | 0.376 | 0.563 | 0.373 | 0.418 | 0.271 | 0.313 | 0.257 | 0.309 | 0.288
8 | H3255 | 0.652 | 0.757 | 0.376 | 0.497 | 0.291 | 0.303 | 0.345 | 0.296 | 0.297 | 0.526 | 0.571 | 0.429 | 0.407 | 0.466 | 0.958 | 1.09 | 0.903 | 0.888 | 0.843
9 | SK-MES-1 | 1.03 | 0.907 | 0.752 | 0.772 | 0.306 | 0.298 | 0.299 | 0.318 | 0.308 | 1.22 | 1.22 | 1.18 | 1.22 | 1.2 | 1.07 | 1.11 | 1.05 | 1.03 | 1
10 | NCI-H1437 | 0.482 | 0.489 | 0.417 | 0.425 | 0.295 | 0.297 | 0.338 | 0.281 | 0.359 | 1.05 | 1.08 | 1.11 | 1.09 | 1.13 | 0.948 | 1.05 | 1.04 | 1.01 | 0.956
11 | LU99A | 0.273 | 0.275 | 0.288 | 0.266 | 0.37 | 0.45 | 0.388 | 0.406 | 0.423 | 0.714 | 0.959 | 0.841 | 0.776 | 0.807 | 0.473 | 0.524 | 0.551 | 0.579 | 0.548
12 | HCC-827 | 0.405 | 0.433 | 0.395 | 0.388 | 0.473 | 0.507 | 0.412 | 0.431 | 0.466 | 1.03 | 0.985 | 1.06 | 1.03 | 1.04 | 0.879 | 1.03 | 0.97 | 0.942 | 0.962
13 | LK-2 | 0.173 | 0.174 | 0.15 | 0.173 | 0.641 | 0.714 | 0.556 | 0.625 | 0.887 | 0.787 | 0.927 | 0.77 | 0.872 | 0.889 | 0.7 | 0.715 | 0.422 | 0.746 | 0.559
14 | HCC-366 | 0.0637 | 0.0775 | 0.062 | 0.0627 | 0.378 | 0.419 | 0.396 | 0.359 | 0.344 | 0.967 | 1.1 | 1.01 | 1.06 | 1.02 | 0.598 | 0.761 | 0.498 | 0.522 | 0.668
15 | BEN | 0.559 | 0.442 | 0.59 | 0.423 | 0.481 | 0.475 | 0.432 | 0.463 | 0.474 | 0.0596 | 0.0766 | 0.0603 | 0.0534 | 0.0741 | 0.9 | 1.08 | 0.772 | 0.767 | 0.967
16 | NCI-H23 | 0.245 | 0.367 | 0.288 | 0.256 | 0.44 | 0.481 | 0.52 | 0.575 | 0.55 | 0.782 | 0.807 | 0.868 | 0.794 | 0.833 | 0.542 | 0.722 | 0.619 | 0.491 | 0.611
17 | NCI-H1395 | 0.701 | 1.01 | 0.806 | 0.771 | 0.605 | 0.527 | 0.604 | 0.495 | 0.509 | 1.04 | 1.14 | 1.11 | 1.08 | 0.882 | 0.997 | 0.972 | 1.12 | 1 | 0.904
